Reference: PMC4412288, “Crystal Structures of the Carboxyl cGMP Binding Domain of the Plasmodium falciparum cGMP-dependent Protein Kinase Reveal a Novel Capping Triad Crucial for Merozoite Egress” (PLoS Pathogens, 2015)

Tests used:
[1] = target: T1, PfCNB-C (residues 275–428) (Plasmodium falciparum, UniProt Q8I719); test: FP binding measurements, isolated PfCNB-C domain
T1 construct: 275–428 for CNB-C; His-tag (pQTEV, TEV site) (N, cleaved yes); made in house; host or cells: E. coli TP2000 (delta-cya)
T1 sequence (Q8I719 275-428): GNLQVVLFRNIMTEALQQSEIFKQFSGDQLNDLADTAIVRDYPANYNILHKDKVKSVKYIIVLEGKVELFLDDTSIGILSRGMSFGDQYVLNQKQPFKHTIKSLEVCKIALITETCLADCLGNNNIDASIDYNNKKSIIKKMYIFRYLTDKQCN
Source text: A manually designed construct consisting of PfPKG amino acids 1–853 with codons optimized for expression in E.coli was synthesized at Life Technologies. All PfPKG constructs were ligated into the His-tagged bacterial expression vector, pQTEV [28]. In designing the expression constructs of each CNB, we used the sequence of the cGMP selective CNB-B that we recently reported. The domain boundaries for the individual constructs are: residues 1–173 for CNB-A, 158–294 for CNB-B, 275–428 for CNB-C and 401–542 for CNB-D. All PfPKG proteins were expressed in TP2000 E. coli. The cells were grown at 37 °C to an OD600nm of 0.6, then induced with 0.5 mM IPTG, and grown for an additional 10 hours at 25 °C. Cells were harvested by centrifugation, then resuspended in 50 mM potassium phosphate (pH 7.5), 500 mM NaCl and 1 mM β-mercaptoethanol, and lysed using a cell disruptor (Constant Systems).
The direct fluorescence polarization (FP) assay was performed following the procedure from Moll et al. Measurements were performed in 150 mM NaCl, 20 mM MOPS plus 0.005% (w/v) CHAPS pH 7.0 using the Fusion a-FP microtiter plate reader at room temperature in a 384 well microtiterplate (Perkin Elmer, Optiplate, black). The protein concentration was varied while the concentration of 8-Fluo-cAMP/8-Fluo-cGMP (Biolog Life Science Institute (Bremen, Germany)) was fixed at 1–5 nM. […] The KD values were calculated from sigmoidal dose-response curves.
For competition FP experiments, the protein concentration and the concentration of 8-Fluo-cGMP were fixed to give a polarization signal that was 50% of the maximum value obtained from direct FP measurements. […] FP signals were detected as indicated above. Data were analyzed with GraphPad Prism 5.03 by plotting the polarization signal in mPol against the logarithm of the cyclic nucleotide concentration. The EC50 values were calculated from sigmoidal dose-response curves.

[2] = test system: P. falciparum PfPKGT618Q-3xHA control line; test: Growth assay in presence of compound 2, T618Q-3xHA control line; type: cell-based, Plasmodium falciparum; conditions: 1 μM; duration of the experiment 7 days
Experimental: (§1) P. falciparum lines 3D7/attB [22], 3D7/PfPKGT618Q [6], and 3D7/PfPKG-HA [35] were cultured according to standard procedures in human A+ erythrocytes (National Blood Transfusion Service, UK) and RPMI 1640 medium supplemented with 0.5% Albumax type II (Lifetech) and 5 nM WR99210 (Jacobus Pharmaceuticals, New Jersey).
(§2) P. falciparum cultures were synchronised by repeated sorbitol lysis, then either compound 2 (1μM) or DMSO was added to late trophozoites / early schizonts and cultures harvested 16h later to count newly formed ring stage parasites. Cells were fixed in 4% formaldehyde/0.1% glutaraldehyde in PBS for 30 minutes at room temperature, stained with SYBR green (Lifetech) diluted 1:10000 in PBS for 30 minutes, washed with PBS and analysed on a FACSCalibur cell analyser (Becton Dickinson). FACS data were analysed using FlowJo software. For growth assays, starting parasitaemia was 0.2% ring stages and cultured in presence or absence of compound 2 (1 μM). Samples were taken every 48h and fixed, stained, and analyzed as described above.

[3] = test system: P. falciparum PfPKGT618Q/R484A/Q532A/D533A-3xHA transgenic line; test: Growth assay in presence of compound 2, triple mutant line; type: cell-based, Plasmodium falciparum; conditions: 1 μM; duration of the experiment 7 days
Experimental: as §1, §2

[4] = test system: P. falciparum PfPKGT618Q/R484A-3xHA transgenic line; test: Growth assay in presence of compound 2, R484A line; type: cell-based, Plasmodium falciparum; conditions: 1 μM; duration of the experiment 7 days
Experimental: as §1, §2

[5] = test system: PfPKG T618Q mutant; design: method as in PMID 18532880, PMID 19915077, PMID 23675297, PMID 24594931; conditions: T618Q gatekeeper substitution; cited from earlier work
[6] = test system: P. falciparum PfPKGT618Q replacement line and PfPKGT618Q-3xHA control line; test: Schizont accumulation assay, T618Q lines; type: cell-based, Plasmodium falciparum; conditions: 1 μM; Giemsa-stained blood films
[7] = test system: P. falciparum transgenic lines with the capping triad mutations; test: Schizont accumulation assay, capping triad mutant lines; type: cell-based, Plasmodium falciparum; conditions: 1 μM; Giemsa-stained blood films
Experimental: as §2, with “Cells were fixed in 4% formaldehyde/0.1% glutaraldehyde in PBS for 30 minutes at room temperature, stained with SYBR green (Lifetech) diluted 1:10000 in PBS for 30 minutes, washed with PBS and analysed on a FACSCalibur cell analyser (Becton Dickinson).” left out

Nc1nc2c(nc(SCCNC(=S)Nc3ccc4c(c3)C(=O)OC43c4ccc(O)cc4Oc4cc(O)ccc43)n2[C@@H]2O[C@@H]3COP(=O)(O)O[C@H]3[C@H]2O)c(=O)[nH]1 [8-Fluo-cGMP]
affinity of PfCNB-C for the fluorescent nucleotide [1]: very weak affinity

CN(C)Cc1ccn2c(-c3ccnc(N)n3)c(-c3ccc(F)cc3)nc2c1 [compound 2]
parasite growth in the presence of compound [2]: able to grow at a similar rate to the allelic replacement control line
parasite growth in the presence of compound [3]: did not proliferate
parasite growth in the presence of compound [4]: did not proliferate
sensitivity of the kinase to the inhibitor [5]: no longer sensitive
ring stage parasites observed [6]: high levels of ring stage parasites
progression from schizont to ring stage parasites [7]: did not progress to ring stage parasites
